Source: PMC6317416, “Thermophilic phosphoribosyltransferases Thermus thermophilus HB27 in nucleotide synthesis” (Beilstein Journal of Organic Chemistry, 2018)

System: T1, TthHPRT (hypoxanthine phosphoribosyltransferase Thermus thermophilus HB27)
T1 construct: gene hpt; C-terminal His-tag (pET-23a+), E. coli C3030
Experiment: HPLC product quantification, initial rate, nonlinear regression
Assay type: biochemical
Details: 5 mM MgCl2, 20 mM Tris-HCl pH 8.0, 70 °C
Source text: HPLC product quantification, initial rate, nonlinear regression on TthHPRT (hypoxanthine phosphoribosyltransferase Thermus thermophilus HB27)

Row | SMILES | Km (0.50 mM hypoxanthine) [µM] | Km (1 mM PRPP) [µM]
1 | O=P(O)(O)OC[C@H]1O[C@H](OP(=O)(O)OP(=O)(O)O)[C@H](O)[C@@H]1O [PRPP] | 220 ± 60 | –
2 | Nc1nc2[nH]cnc2c(=O)[nH]1 [guanine] | – | 28 ± 9
3 | O=c1[nH]cnc2nc[nH]c12 [hypoxanthine] | – | 13 ± 4
